{"source": "paper PMC7534320", "about": "(Journal of Enzyme Inhibition and Medicinal Chemistry, 2020)", "key": {"[1]": {"assay": "Antioxidant activity, DPPH radical reaction", "type": "biochemical", "conditions": "free substance; linear regression", "method": "The antioxidant activity was evaluated using the DPPH radical reaction. The investigation of antioxidant properties was performed spectrophotometrically, according to Studzińska-Sroka’s modifications. […] 25.0 µL of DPPH solution was mixed with 175.0 µL of studied solutions in a 96-well plate, and then the plate was shaken and incubated in darkness for half an hour at room temperature. Subsequently, the absorbance (A) was measured at the wavelength set at 517 nm against the blank (the mixture of DPPH solution and methanol). The inhibition of the DPPH radical by the studied samples was calculated due to the following equation: A=Ao − Ai/Ao x 100% where Ao is the absorbance of the control sample, Ai is the absorbance of studied samples. Every determination was repeated six times. As a reference, vitamin C was used. IC50 values, which determine the concentration of the substance that inhibits the formation of DPPH by 50%, were determined by linear regression analysis."}, "[2]": {"assay": "PAMPA gastrointestinal (GIT) permeability", "type": "in vitro ADME", "excerpt": "(§1) In vitro gastrointestinal (GIT) and blood–brain barrier (BBB) permeability was studied using the PAMPA model (Parallel Artificial Membrane Permeability Assay). The sandwich consists of two 96-well microfilter plates. The PAMPA system contains two chambers: the donor at the bottom and the acceptor chamber at the top. The chambers are separated by a 120-μm-thick microfilter disc coated with a 20% (w/v) dodecane solution of a lecithin mixture (Pion, Inc.). Before adding samples to the donor compartments, the samples were dissolved in DMSO. The donor solution was adjusted to pH ≈ 6.8 for GIT application and to pH ≈ 7.4 for BBB application using 0.5 M NaOH. The plates were combined and then incubated for 3 h for GIT model and 4 h for BBB model in a humidity-saturated atmosphere at the temperature set at 310 K. The apparent permeability coefficient (Papp) was calculated according to the following equation: Papp=−ln(1−CA/Cequilibrium)/S×(1/VD+1/VA)×t where VD – donor volume, VA – acceptor volume, Cequilibrium – equilibrium concentration Cequilibrium=CD×VD+ CA×VA/VD+VA, S – membrane area, t – incubation time (in seconds)."}, "[3]": {"assay": "PAMPA blood–brain barrier (BBB) permeability", "type": "in vitro ADME", "excerpt": "as §1\nCompounds with high permeability have the Papp value at the level >4.0 × 10^−6 cm s^−1 [28]."}, "[4]": {"system": "C. difficile ATCC 9689", "assay": "Agar well diffusion technique", "type": "cell-based", "conditions": "25 mg/mL dissolved in methanol and filtered"}, "[5]": {"system": "C. butyricum ATTC 860", "type": "cell-based", "conditions": "25 mg/mL dissolved in methanol and filtered"}, "[6]": {"system": "L. monocytogenes ATCC 7644", "assay": "Agar well diffusion technique", "type": "cell-based", "conditions": "25 mg/mL dissolved in methanol and filtered"}, "[7]": {"system": "B. subtillis ATCC 238557", "assay": "Agar well diffusion technique", "type": "cell-based", "conditions": "25 mg/mL dissolved in methanol and filtered"}, "[8]": {"system": "E. faecalis ATTC 29212", "assay": "Agar well diffusion technique", "type": "cell-based", "conditions": "25 mg/mL dissolved in methanol and filtered"}, "[9]": {"system": "S. aureus ATCC 25923", "assay": "Agar well diffusion technique", "type": "cell-based", "conditions": "25 mg/mL dissolved in methanol and filtered"}, "[10]": {"system": "S. pyrogenes ATCC 19615", "assay": "Agar well diffusion technique", "type": "cell-based", "conditions": "25 mg/mL dissolved in methanol and filtered"}, "[11]": {"system": "E. coli ATCC 25922", "assay": "Agar well diffusion technique", "type": "cell-based", "conditions": "25 mg/mL dissolved in methanol and filtered"}, "[12]": {"system": "K. pneumoniae ATCC 31488", "assay": "Agar well diffusion technique", "type": "cell-based", "conditions": "25 mg/mL dissolved in methanol and filtered"}, "[13]": {"system": "P. mirabilis ATCC 12453", "assay": "Agar well diffusion technique", "type": "cell-based", "conditions": "25 mg/mL dissolved in methanol and filtered"}, "[14]": {"system": "S. typhimurium ATCC 14028", "assay": "Agar well diffusion technique", "type": "cell-based", "conditions": "25 mg/mL dissolved in methanol and filtered"}, "[15]": {"system": "P. aereuginosa ATCC 27853", "assay": "Agar well diffusion technique", "type": "cell-based", "conditions": "25 mg/mL dissolved in methanol and filtered"}, "[16]": {"system": "E. aerogenes ATCC 13048", "assay": "Agar well diffusion technique", "type": "cell-based", "conditions": "25 mg/mL dissolved in methanol and filtered"}, "[17]": {"system": "C. krusei ATCC 14243", "assay": "Agar well diffusion technique", "type": "cell-based", "conditions": "25 mg/mL dissolved in methanol and filtered"}, "[18]": {"system": "C. albicans ATTC 10231", "assay": "Agar well diffusion technique", "type": "cell-based", "conditions": "25 mg/mL dissolved in methanol and filtered"}, "[19]": {"conditions": "piperine after incorporation into the cavity of β-cyclodextrin; cited from earlier work"}}, "note": "Read-outs that look alike come from different tables or passages of the source.", "data": [{"smiles": "O=C1O[C@H]([C@@H](O)CO)C(O)=C1O", "note": "[Vitamin C]", "values": [{"measurement": "IC50 DPPH", "setting": "[1]", "result": 0.066, "unit": "mg/mL"}]}, {"smiles": "O=C(/C=C/C=C/c1ccc2c(c1)OCO2)N1CCCCC1", "note": "[Piperine, piperine]", "values": [{"measurement": "Papp at 3 h", "setting": "[2]; donor pH ≈ 6.8, 3 h, 310 K, read-out: Papp of piperine, GIT PAMPA", "result": 19, "unit": "×10⁻⁶ cm/s"}, {"measurement": "Papp at 4 h", "setting": "[3]; PAMPA, donor pH ≈ 7.4, 4 h, 310 K, read-out: Papp of piperine, BBB PAMPA", "result": 11.9, "unit": "×10⁻⁶ cm/s"}, {"measurement": "permeability classification, BBB PAMPA", "setting": "[3]; Papp > 4.0 × 10^−6 cm s^−1 = high permeability", "result": "well permeable"}, {"measurement": "IC50 DPPH", "setting": "[1]", "result": 38.945, "unit": "mg/mL"}, {"measurement": "Inhibition zone (mm) – Agar well diffusion technique", "setting": "[4]", "result": 3.5, "unit": "mm"}, {"measurement": "Inhibition zone (mm) – Agar well diffusion technique", "setting": "[5]", "result": 5.5, "unit": "mm"}, {"measurement": "Inhibition zone (mm) – Agar well diffusion technique", "setting": "[6]", "result": 5.0, "unit": "mm"}, {"measurement": "Inhibition zone (mm) – Agar well diffusion technique", "setting": "[7]", "result": 7.0, "unit": "mm"}, {"measurement": "Inhibition zone (mm) – Agar well diffusion technique", "setting": "[8]", "result": 9.0, "unit": "mm"}, {"measurement": "Inhibition zone (mm) – Agar well diffusion technique", "setting": "[9]", "result": 3.0, "unit": "mm"}, {"measurement": "Inhibition zone (mm) – Agar well diffusion technique", "setting": "[10]", "result": 2.5, "unit": "mm"}, {"measurement": "Inhibition zone (mm) – Agar well diffusion technique", "setting": "[11]", "result": 2.0, "unit": "mm"}, {"measurement": "Inhibition zone (mm) – Agar well diffusion technique", "setting": "[12]", "result": 2.0, "unit": "mm"}, {"measurement": "Inhibition zone (mm) – Agar well diffusion technique", "setting": "[13]", "result": 1.0, "unit": "mm"}, {"measurement": "Inhibition zone (mm) – Agar well diffusion technique", "setting": "[14]", "result": 1.5, "unit": "mm"}, {"measurement": "Inhibition zone (mm) – Agar well diffusion technique", "setting": "[15]", "result": 1.5, "unit": "mm"}, {"measurement": "Inhibition zone (mm) – Agar well diffusion technique", "setting": "[16]", "result": 1.0, "unit": "mm"}, {"measurement": "Inhibition zone (mm) – Agar well diffusion technique", "setting": "[17]", "result": 2.5, "unit": "mm"}, {"measurement": "Inhibition zone (mm) – Agar well diffusion technique", "setting": "[18]", "result": 2.5, "unit": "mm"}, {"measurement": "increase of solubility of piperine", "setting": "[19]", "result": "about 16 folds"}]}, {"smiles": "COc1cc(/C=C/C(=O)CC(=O)/C=C/c2ccc(O)c(OC)c2)ccc1O", "note": "[Curcumin, Diferuloylmethane]", "values": [{"measurement": "permeability classification, GIT PAMPA", "setting": "[2]", "result": "well permeable"}, {"measurement": "Papp at 3 h", "setting": "[2]; pH 6.8", "result": 3.46, "unit": "×10⁻⁶ cm/s"}, {"measurement": "permeability classification, BBB PAMPA", "setting": "[3]; PAMPA", "result": "well permeable"}, {"measurement": "Papp at 4 h", "setting": "[3]; PAMPA, pH 7.4", "result": 31.1, "unit": "×10⁻⁶ cm/s"}, {"measurement": "Inhibition zone (mm) – Agar well diffusion technique", "setting": "[4]", "result": 6.5, "unit": "mm"}, {"measurement": "Inhibition zone (mm) – Agar well diffusion technique", "setting": "[5]", "result": 5.5, "unit": "mm"}, {"measurement": "Inhibition zone (mm) – Agar well diffusion technique", "setting": "[6]", "result": 5.0, "unit": "mm"}, {"measurement": "Inhibition zone (mm) – Agar well diffusion technique", "setting": "[7]", "result": 8.5, "unit": "mm"}, {"measurement": "Inhibition zone (mm) – Agar well diffusion technique", "setting": "[8]", "result": 10.5, "unit": "mm"}, {"measurement": "Inhibition zone (mm) – Agar well diffusion technique", "setting": "[9]", "result": 4.0, "unit": "mm"}, {"measurement": "Inhibition zone (mm) – Agar well diffusion technique", "setting": "[10]", "result": 5.0, "unit": "mm"}, {"measurement": "Inhibition zone (mm) – Agar well diffusion technique", "setting": "[11]", "result": 3.0, "unit": "mm"}, {"measurement": "Inhibition zone (mm) – Agar well diffusion technique", "setting": "[12]", "result": 2.5, "unit": "mm"}, {"measurement": "Inhibition zone (mm) – Agar well diffusion technique", "setting": "[13]", "result": 3.0, "unit": "mm"}, {"measurement": "Inhibition zone (mm) – Agar well diffusion technique", "setting": "[14]", "result": 5.5, "unit": "mm"}, {"measurement": "Inhibition zone (mm) – Agar well diffusion technique", "setting": "[15]", "result": 2.5, "unit": "mm"}, {"measurement": "Inhibition zone (mm) – Agar well diffusion technique", "setting": "[16]", "result": 2.5, "unit": "mm"}, {"measurement": "Inhibition zone (mm) – Agar well diffusion technique", "setting": "[17]", "result": 2.0, "unit": "mm"}, {"measurement": "Inhibition zone (mm) – Agar well diffusion technique", "setting": "[18]", "result": 4.5, "unit": "mm"}]}]}
